Assay results reported in article PMC7769561, “Antileishmanial activity of synthetic analogs of the naturally occurring quinolone alkaloid N-methyl-8-methoxyflindersin” (PLoS ONE, 2020).
Several values for one entry are separate records, joined by “and”; a condition that tells them apart may be missing. Identical values can stand only once.

Key:
[1] = system: L. (V.) panamensis (MHOM/COL/87/UA140-EGFP); assay: Therapeutic in vivo response in hamsters with experimental cutaneous leishmaniasis; design: species or system golden hamster (Mesocrisetus auratus)
Text: We used a golden hamster (Mesocrisetus auratus) model to evaluate the therapeutic response of synthetic alkaloid compounds 2 and 8. Male and female 6-week-old hamsters with a mean live weight (LW) of 120 g were infected by a dorsal intradermic injection of L. (V.) panamensis (MHOM/COL/87/UA140-EGFP) promastigotes. After the infected hamsters developed ulcers, they were randomly divided into three groups (n = 6 each) and treated topically with 1% ointment formulated from compounds 2 and 8.
The hamsters were monitored every 4 weeks to assess their appearance and weight and the lesion size. We categorized each compound’s effectiveness pre- and posttreatment as follows: (i) cure (complete disappearance of lesions), (ii) improvement (>10% reduced lesion area), and (iii) therapeutic failure or nonresponse (increased lesion size). The health status was monitored weekly for 3 months (12 weeks) posttreatment. After 3 months, the hamsters were euthanized in a CO2 chamber. We performed histopathological analysis after necropsy of the affected tissues and organs. In addition, we evaluated treatment cytotoxicity using LW monitoring and biochemical parameters (alanine aminotransferase [ALT], creatinine, and blood urea nitrogen [BUN]) pretreatment and 45 days after ointment administration.
The in vivo efficacy of compounds 1, 2, and 8 was expressed as a percentage cure, improvement, or nonresponse compared to the beginning of treatment. Efficacy was evaluated in vivo to compare percentages, the frequency of change, and treatment cytotoxicity in the hamster model. We used GraphPad Prism to determine ROS and NO production and the apoptotic cell percentage. One- or two-way analysis of variance (ANOVA; response–time kinetics) was used to compare treatments after confirming normal data distribution. P < 0.05 was considered statistically significant by comparing untreated cells (experiments on untreated hMDMs) with infected cells (experiments on untreated and treated hMDMs).

[2] = system: L. (V.) panamensis intracellular amastigotes; assay: Antileishmanial activity in L. (V.) panamensis intracellular amastigotes in hMDMs; type: cell-based, Leishmania (Viannia) panamensis
Experimental: Next, 100 μL of the suspension was cultured in 96-well plates and infected with L. (V.) panamensis promastigotes (HMOM/COL/87/UA-140) at a 10:1 parasite:cell ratio. We incubated the plates in a 5% CO2 atmosphere for 4 h at 35°C. After incubation, we removed noninternalized parasites by washing the cells with 0.9% NaCl saline solution (Baxter International, Deerfield, IL, USA). The cells were incubated again for 24 h and then treated with each quinoline alkaloid–like compound at a concentration of 100, 10, 1, 0.1, and 0.01 μg/mL in a 5% CO2 atmosphere for 72 h at 36°C. Next, we quantified the percentage of infected cells using fluorescence microscopy, as previously described by Pérez-Cordero in 2011 [23], and quantified the parasite load (amount of intracellular promastigotes and amastigotes per cell) using Giemsa staining and flow cytometry (Cytomics FC 500 MPL; Beckman Coulter, Brea, CA, USA). […] Results were expressed as EC50 using Prism GraphPad software’s probit nonlinear regression analysis (https://www.graphpad.com/scientific-software/prism/).
(§1) We used GraphPad Prism nonlinear regression analysis to estimate the percentage mortality with regard to CC50 and EC50. […] The antileishmanial activity with regard to promastigotes was classified as active according to Eq 2: Active=EC50<[LC50/2], (2) where LC50 is the median lethal concentration. We also used GraphPad Prism nonlinear regression analysis to determine the intracellular antileishmanial activity (concentration vs. response), depending on the infection (number of infected cells) and parasite burden (number of parasites/cell) obtained in experimental conditions. Parasite inhibition was estimated using Eq 3, where the plate MFI is 100% parasites: Infectioninhibition(%)=100−[(MIFexposedparasites/MIFunexposedparasites×100)] (3)
The percentage inhibition was used to calculate EC50 by nonlinear regression analysis (fluorescence microscopy), while the parasite burden was evaluated as the percentage of intracellular promastigotes and amastigotes in 100 infected cells (Giemsa staining). […] The selectivity index (SI) was estimated using the following formula: SI=CC50/EC50

[3] = system: L. (V.) panamensis intracellular amastigotes; assay: Transmission electron microscopy of L. (V.) panamensis intracellular amastigotes in hMDMs; type: cell-based, Leishmania (Viannia) panamensis; design: Nucleus (ultrastructural alteration grade) / Vacuoles (ultrastructural alteration grade): key: -: no alteration/absence; +: low alteration/low presence; ++: alteration/moderate presence; +++: serious disturbance/abundant presence; details: compound at EC50, 72 h, TEM; for Cell membrane (ultrastructural alteration grade): key: -: no alteration/absence; +: low alteration/low presence; ++: alteration/moderate presence; +++: serious disturbance/abundant presence; for Flagellum (flagellar/axonema pocket) (grade): key: -: no alteration/absence; +: low alteration/low presence; ++: alteration/moderate presence; +++: serious disturbance/abundant presence; for LB (lipid bodies, grade): key: -: no alteration/absence; +: low alteration/low presence; ++: alteration/moderate presence; +++: serious disturbance/abundant presence; for Mitochondria/Kinetoplasts (ultrastructural alteration grade): key: -: no alteration/absence; +: low alteration/low presence; ++: alteration/moderate presence; +++: serious disturbance/abundant presence
Text: This procedure involved including fresh resin and 100–200-nm-wide ultrafine cuts observed by TEM (100X–10.000X) (HITACHI-HU-12; Hitachi, Tokyo, Japan).

[4] = system: L. (V.) panamensis promastigotes; assay: Antileishmanial activity in L. (V.) panamensis promastigotes (resazurin, 72 h); type: cell-based, Leishmania (Viannia) panamensis; details: L. (V.) panamensis promastigotes, ± SD
Experimental: They were treated with quinoline alkaloid–like compounds at a concentration of 100, 10, 1, 0.1, and 0.01 μg/mL for 72 h at 26°C. Next, we determined antileishmanial activity using the resazurin method (Sigma-Aldrich). Promastigotes treated with amphotericin B (Sigma-Aldrich) and pentamidine (Sanofi-Aventis, Gentilly, France) were used as parasite death (positive) controls. Results were expressed as the medial effective concentration (EC50) using Prism GraphPad software for nonlinear regression analysis (https://www.graphpad.com/scientific-software/prism/).
(§2) All assays required at least three independently duplicated experiments. We determined cytotoxicity against hMDMs and effectivity in L. (V) panamensis promastigotes according to each treatment’s mortality (compound and concentration) using Eq 1, where the control mean fluorescence intensity (MFI) was 100% viability: Validityinhibition(%)=100−[MIFexposedcells/MIFunexposedcells×100] (1)
as §1

hMDMs = assay: Cytotoxicity in hMDMs (resazurin, 72 h); details: class by CC50
Experimental: We isolated hMDMs from buffy coats donated by the Institute of Local Science (Biotechnology and Health Innovation, Bogotá, Colombia) and spun them in Lymphoprep density gradient medium (Stem-Cell, Vancouver, Canada).
Next, we added 100 μL of this culture to each quinoline alkaloid–like compound at a concentration of 200, 20, 2, 0.2, and 0.02 μg/mL. […] Cells treated with amphotericin B (Sigma-Aldrich) were used as cell apoptosis (positive) controls. Results were expressed as the medial cytotoxic concentration (CC50) using Prism GraphPad software for nonlinear regression analysis (https://www.graphpad.com/scientific-software/prism/).
as §2, §1

[5] = hamsters, topical 1% ointment, 3 months posttreatment, n = 6
[6] = amastigotes in hMDMs, 72 h, ± SD

Substance: 1,2,3,4-tetrahydro(benzo)-3-quinolin-ol [Compound 2]
- Histopathologic analysis of the skin, cured hamsters ([1]; hamsters cured by treatment, hematoxylin/eosin): moderate orthokeratotic hyperkeratosis and low mononuclear leukocyte infiltration
- Histopathologic analysis of the skin, hamsters showing improvement ([1]; hamsters showing improvement, hematoxylin/eosin): severe leukocyte infiltratation and abundant L. (V.) panamensis being phagocytosed by hMDMs
- Lesion size during treatment ([1]; hamsters, topical 1% ointment): significantly reduced lesions
- Improvement (reduced lesion size), percentage of the experimental group [1, 5]: 66.6%
- Total cure (healing), percentage of the experimental group [1, 5]: 33.3%
- SI (selectivity index = CC50/EC50) ([2]; CC50 hMDMs / EC50 intracellular amastigotes): 3.64 and > 3
- EC50 [2, 6]: 26 µM
- EC50 Intracellular amastigotes [2, 6]: 5.2 ± 0.9 µg/mL
- Antileishmanial activity class ([2]; intracellular amastigotes, class by EC50): high (high if EC50 < 25 μg/mL)
- Cell membrane (ultrastructural alteration grade) [3]: -
- Flagellum (flagellar/axonema pocket) (description) [3]: Multiple organelles
- Flagellum (flagellar/axonema pocket) (grade) [3]: ++
- LB (lipid bodies, grade) [3]: +++
- Mitochondria/Kinetoplasts (description) [3]: Multiple organelles
- Mitochondria/Kinetoplasts (ultrastructural alteration grade) [3]: ++
- Nucleus (description) [3]: Abnormal distribution of chromatine
- Nucleus (ultrastructural alteration grade) [3]: ++
- PV (description) [3]: Multiple
- PV (parasitophorous vacuoles, grade) [3]: +
- Vacuoles (description) [3]: Double membrane (autophagic-digestives)
- Vacuoles (ultrastructural alteration grade) [3]: +++
- EC50 Intracellular promastigotes [4]: 3.4 ± 1.1 µg/mL
- EC50 ([4]; read-out: EC50 Intracellular promastigotes (converted)): 17 µM
- Cytotoxicity class toward hMDMs (hMDMs): high (high if CC50 < 100 μg/mL)
